Results from PubChem BioAssay (NCI).
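Growth conditions: 96-well plates. Treatment: test compound, 48 hours, 5 concentrations. Analysis: linear interpolation between bracketing concentrations; unreached endpoints set to highest concentration. GI50: concentration for 50% inhibition of growth. Definition used: TGI = concentration required for complete inhibition of growth.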

How the values were obtained:
Test in all cases: growth of human tumour cells (NCI), 48 h
NCI/ADR-RES ovarian = test system: NCI/ADR-RES ovarian
786-0 renal = test system: 786-0 renal
HCT-116 colon = test system: HCT-116 colon
SK-MEL-5 melanoma = test system: SK-MEL-5 melanoma
NCI-H460 lung = test system: NCI-H460 lung
SF-295 CNS = test system: SF-295 CNS
MDA-MB-435 = test system: MDA-MB-435
COLO 205 colon = test system: COLO 205 colon
HOP-92 NSCLC = test system: HOP-92 NSCLC
LOX IMVI melanoma = test system: LOX IMVI melanoma
NCI-H522 lung = test system: NCI-H522 lung
NCI-H23 lung = test system: NCI-H23 lung
HS 578T breast = test system: HS 578T breast
CCRF-CEM leukemia = test system: CCRF-CEM leukemia
SN12C renal = test system: SN12C renal
SR leukemia = test system: SR leukemia
BT-549 breast = test system: BT-549 breast
CAKI-1 renal = test system: CAKI-1 renal
HL-60(TB) leukemia = test system: HL-60(TB) leukemia
MDA-MB-231 breast = test system: MDA-MB-231 breast
RPMI-8226 leukemia = test system: RPMI-8226 leukemia
MOLT-4 leukemia = test system: MOLT-4 leukemia
OVCAR-8 ovarian = test system: OVCAR-8 ovarian
SK-OV-3 ovarian = test system: SK-OV-3 ovarian
SF-268 CNS = test system: SF-268 CNS
NCI-H226 lung = test system: NCI-H226 lung
A498 renal = test system: A498 renal
PC-3 prostate = test system: PC-3 prostate
SNB-75 CNS = test system: SNB-75 CNS
HCC-2998 colon = test system: HCC-2998 colon
OVCAR-4 ovarian = test system: OVCAR-4 ovarian
OVCAR-5 ovarian = test system: OVCAR-5 ovarian
EKVX NSCLC = test system: EKVX NSCLC
U251 CNS = test system: U251 CNS
ACHN renal = test system: ACHN renal
TK-10 renal = test system: TK-10 renal
DU-145 prostate = test system: DU-145 prostate
SW-620 colon = test system: SW-620 colon
SNB-19 CNS = test system: SNB-19 CNS
HOP-62 NSCLC = test system: HOP-62 NSCLC
HT29 colon = test system: HT29 colon
A549 NSCLC = test system: A549 NSCLC
OVCAR-3 ovarian = test system: OVCAR-3 ovarian
RXF 393 renal = test system: RXF 393 renal
KM12 colon = test system: KM12 colon
SK-MEL-28 melanoma = test system: SK-MEL-28 melanoma
SK-MEL-2 melanoma = test system: SK-MEL-2 melanoma
IGROV1 ovarian = test system: IGROV1 ovarian
M14 melanoma = test system: M14 melanoma
UACC-257 melanoma = test system: UACC-257 melanoma
K-562 leukemia = test system: K-562 leukemia
T-47D breast = test system: T-47D breast
HCT-15 colon = test system: HCT-15 colon
SF-539 CNS = test system: SF-539 CNS
MCF7 breast = test system: MCF7 breast
UO-31 renal = test system: UO-31 renal

SMILES: COc1ccc(N2CCN(CC(=O)N3CCN(c4nnc(-c5ccc(Cl)cc5)c(-c5ccc(Cl)cc5)n4)CC3)CC2)cc1
- GI50 (NCI/ADR-RES ovarian): > 100 µM
- TGI (NCI/ADR-RES ovarian): > 100 µM
- GI50 (786-0 renal): 10 µM
- TGI (786-0 renal): > 100 µM
- GI50 (HCT-116 colon): 3.96 µM
- TGI (HCT-116 colon): > 100 µM
- GI50 (SK-MEL-5 melanoma): 5.52 µM
- TGI (SK-MEL-5 melanoma): 52.4 µM
- GI50 (NCI-H460 lung): 7 µM
- TGI (NCI-H460 lung): > 100 µM
- GI50 (SF-295 CNS): 7.09 µM
- TGI (SF-295 CNS): > 100 µM
- GI50 (MDA-MB-435): 9.06 µM
- TGI (MDA-MB-435): > 100 µM
- GI50 (COLO 205 colon): 6.6 µM
- TGI (COLO 205 colon): > 100 µM
- GI50 (HOP-92 NSCLC): 11.1 µM
- TGI (HOP-92 NSCLC): 30.5 µM
- GI50 (LOX IMVI melanoma): 7.76 µM
- TGI (LOX IMVI melanoma): > 100 µM
- GI50 (NCI-H522 lung): 9.2 µM
- TGI (NCI-H522 lung): > 100 µM
- GI50 (NCI-H23 lung): 35.9 µM
- TGI (NCI-H23 lung): > 100 µM
- GI50 (HS 578T breast): > 100 µM
- TGI (HS 578T breast): > 100 µM
- GI50 (CCRF-CEM leukemia): 12.6 µM
- TGI (CCRF-CEM leukemia): > 100 µM
- GI50 (SN12C renal): 24.8 µM
- TGI (SN12C renal): > 100 µM
- GI50 (SR leukemia): 2.56 µM
- TGI (SR leukemia): 8.65 µM
- GI50 (BT-549 breast): 4.83 µM
- TGI (BT-549 breast): > 100 µM
- GI50 (CAKI-1 renal): 16.6 µM
- TGI (CAKI-1 renal): 82.7 µM
- GI50 (HL-60(TB) leukemia): 14.3 µM
- TGI (HL-60(TB) leukemia): > 100 µM
- GI50 (MDA-MB-231 breast): 35.4 µM
- TGI (MDA-MB-231 breast): > 100 µM
- GI50 (RPMI-8226 leukemia): 6.05 µM
- TGI (RPMI-8226 leukemia): > 100 µM
- GI50 (MOLT-4 leukemia): 3.1 µM
- TGI (MOLT-4 leukemia): > 100 µM
- GI50 (OVCAR-8 ovarian): 22.1 µM
- TGI (OVCAR-8 ovarian): > 100 µM
- GI50 (SK-OV-3 ovarian): > 100 µM
- TGI (SK-OV-3 ovarian): > 100 µM
- GI50 (SF-268 CNS): > 100 µM
- TGI (SF-268 CNS): > 100 µM
- GI50 (NCI-H226 lung): > 100 µM
- TGI (NCI-H226 lung): > 100 µM
- GI50 (A498 renal): 13.4 µM
- TGI (A498 renal): > 100 µM
- GI50 (PC-3 prostate): 6.56 µM
- TGI (PC-3 prostate): > 100 µM
- GI50 (SNB-75 CNS): 13.2 µM
- TGI (SNB-75 CNS): 55.4 µM
- GI50 (HCC-2998 colon): 9.94 µM
- TGI (HCC-2998 colon): > 100 µM
- GI50 (OVCAR-4 ovarian): 8.8 µM
- TGI (OVCAR-4 ovarian): > 100 µM
- GI50 (OVCAR-5 ovarian): > 100 µM
- TGI (OVCAR-5 ovarian): > 100 µM
- GI50 (EKVX NSCLC): > 100 µM
- TGI (EKVX NSCLC): > 100 µM
- GI50 (U251 CNS): 10.6 µM
- TGI (U251 CNS): > 100 µM
- GI50 (ACHN renal): 6.42 µM
- TGI (ACHN renal): 55.6 µM
- GI50 (TK-10 renal): 9.18 µM
- TGI (TK-10 renal): > 100 µM
- GI50 (DU-145 prostate): 75 µM
- TGI (DU-145 prostate): > 100 µM
- GI50 (SW-620 colon): 46.3 µM
- TGI (SW-620 colon): > 100 µM
- GI50 (SNB-19 CNS): > 100 µM
- TGI (SNB-19 CNS): > 100 µM
- GI50 (HOP-62 NSCLC): > 100 µM
- TGI (HOP-62 NSCLC): > 100 µM
- GI50 (HT29 colon): 4.03 µM
- TGI (HT29 colon): 43.2 µM
- GI50 (A549 NSCLC): 11.8 µM
- TGI (A549 NSCLC): > 100 µM
- GI50 (OVCAR-3 ovarian): 11.3 µM
- TGI (OVCAR-3 ovarian): > 100 µM
- GI50 (RXF 393 renal): 3.98 µM
- TGI (RXF 393 renal): 23.7 µM
- GI50 (KM12 colon): 4.86 µM
- TGI (KM12 colon): > 100 µM
- GI50 (SK-MEL-28 melanoma): 96.8 µM
- TGI (SK-MEL-28 melanoma): > 100 µM
- GI50 (SK-MEL-2 melanoma): 25.8 µM
- TGI (SK-MEL-2 melanoma): > 100 µM
- GI50 (IGROV1 ovarian): 16 µM
- TGI (IGROV1 ovarian): > 100 µM
- GI50 (M14 melanoma): 12.7 µM
- TGI (M14 melanoma): > 100 µM
- GI50 (UACC-257 melanoma): 18.9 µM
- TGI (UACC-257 melanoma): > 100 µM
- GI50 (K-562 leukemia): 5.8 µM
- TGI (K-562 leukemia): > 100 µM
- GI50 (T-47D breast): 3.64 µM
- TGI (T-47D breast): > 100 µM
- GI50 (HCT-15 colon): 6.8 µM
- TGI (HCT-15 colon): > 100 µM
- GI50 (SF-539 CNS): 3.66 µM
- TGI (SF-539 CNS): 17.3 µM
- GI50 (MCF7 breast): 3.91 µM
- TGI (MCF7 breast): > 100 µM
- GI50 (UO-31 renal): 2.8 µM
- TGI (UO-31 renal): > 100 µM
